The results in this text go back to patent US10077261B2, “Imidazolin-5-one derivative useful as FASN inhibitors for the treatment of cancer” (Janssen Pharmaceutica NV, priority 2012, dated 2018).

Experiment [1] deals with A2780 ovarian cells. Briefly: A2780 ovarian cell proliferation assay in lipid reduced medium, with palmitate (MTT). It is filed as cell-based. To be noted: Homo sapiens, A2780, 96 h; read-out: pIC50 A2780 Ovarian Cell, With Palmitate (converted). In short, it runs like this: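 Seeded cells were switched next day to lipid-reduced serum, exposed to compound and 25 μM palmitate complexed with fatty-acid-free BSA, and incubated 96 h. Proliferation was then determined by MTT absorbance at 544 nm, with a best-fit curve of signal against concentration.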

Experiment [2] relates to A2780 ovarian cells. Kind of experiment: A2780 ovarian cell proliferation assay in lipid reduced medium, without palmitate (MTT). Format: cell-based. To be noted: Homo sapiens, A2780, 96 h; read-out: pIC50 A2780 Ovarian Cell, Without Palmitate (converted).
The subject of experiment [3] is LNCaP-Vancouver prostate cells. Briefly: In vitro LNCaP Vancouver prostate cell proliferation assay in lipid reduced medium. It is filed as cell-based. To be noted: read-out: pIC50 LNCaP_Vancouver prostate cell (converted).
Experiment [4] relates to PC-3M-Luc-C6 prostate cells. Briefly: In vitro PC-3M-Luc-C6 prostate cell proliferation assay in lipid reduced medium. Format: cell-based. To be noted: 96 h, read-out: pIC50 PC-3M-Luc-C6 prostate cell (converted). Here is the method: PC-3M-Luc-C6 prostate cells were obtained from Xenogen Corporation. Cells were maintained in MEM supplemented with 10% Fetal Calf Serum (FCS, Hyclone), 2 mM glutamine, 1 mM sodium pyruvate, 1% BME vitamins (available from for example, Sigma Aldrich), 0.1 mM non Essential Amino Acid and 50 μg/ml Gentamicin. The cells were passaged twice a week.
The next day 10 μl test compound/DMSO diluted in medium was added (3E-5M, 1E-5M, 3E-6M, 1E-6M, 3E-7M, 1E-7M, 3E-8M, 1E-8M final concentration). Compounds were tested in duplicate. After 96 h incubation at 37° C., 5% CO2 25 μl ATP-glow mix was added. The plate was incubated for 30 min at 37° C. and luminescence was measured with the Envision.
Analysis: Determination of pIC50 Values
pIC50 values were calculated as follows.
where mLC and mHC are the means of the low control wells and high control wells on the plate, after manual exclusion of outliers. The relation between the % Controlmin values and concentration was fitted to a 4-parameter logistic curve using a non-linear least squares regression method to determine the pIC50 value. Outlying data points were excluded manually to get a correct fit. The pIC50 corresponds to −log 10(IC50), if the IC50 is expressed in molar units (http://www.ncbi.nlm.nih.gov/books/NBK91994). The IC50 parameter was always determined by non-linear regression, but one or more of the other parameters may have been held fixed on a relevant input value, such as 0 for the bottom values.

Experiment [5] addresses T1, hFASN enzyme (full length) (Homo sapiens, UniProt P49327).
T1 construct: 10 μL hFASN enzyme (full length, 300 ng, purified in house); made in house
Kind of experiment: Fatty Acid Synthase (FASN) inhibition scintillation proximity assay. Format: biochemical. The following applies: for inhibition at 10 µM: read-out: Human FASN % inhibition @ 10 μM, 10 μM test compound; for IC50: read-out: Human FASN pIC50 (converted). In outline: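 Compounds at 0.01–30 μM were mixed with 300 ng purified full-length enzyme in 100 mM KH2PO4 pH 7.5, 1 mM DTT. Substrates ³H-acetyl-CoA and malonyl-CoA were then converted, and bead addition stopped the reaction. Signal was normalised to low and high plate controls and fitted by 4-parameter nonlinear regression.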
For orientation: Scintillation proximity formats need no separation of bound from free tracer.

For experiment [6], the target named is Fatty Acid Synthase Keto-reductase Domain (FASN KR) (Homo sapiens, UniProt P49327). Kind of experiment: Fatty Acid Synthase keto-reductase domain (FASN KR) inhibition, NADPH oxidation at 340 nm.
Sequence of Fatty Acid Synthase Keto-reductase Domain (FASN KR) (P49327 whole entry, the tested form may be a part): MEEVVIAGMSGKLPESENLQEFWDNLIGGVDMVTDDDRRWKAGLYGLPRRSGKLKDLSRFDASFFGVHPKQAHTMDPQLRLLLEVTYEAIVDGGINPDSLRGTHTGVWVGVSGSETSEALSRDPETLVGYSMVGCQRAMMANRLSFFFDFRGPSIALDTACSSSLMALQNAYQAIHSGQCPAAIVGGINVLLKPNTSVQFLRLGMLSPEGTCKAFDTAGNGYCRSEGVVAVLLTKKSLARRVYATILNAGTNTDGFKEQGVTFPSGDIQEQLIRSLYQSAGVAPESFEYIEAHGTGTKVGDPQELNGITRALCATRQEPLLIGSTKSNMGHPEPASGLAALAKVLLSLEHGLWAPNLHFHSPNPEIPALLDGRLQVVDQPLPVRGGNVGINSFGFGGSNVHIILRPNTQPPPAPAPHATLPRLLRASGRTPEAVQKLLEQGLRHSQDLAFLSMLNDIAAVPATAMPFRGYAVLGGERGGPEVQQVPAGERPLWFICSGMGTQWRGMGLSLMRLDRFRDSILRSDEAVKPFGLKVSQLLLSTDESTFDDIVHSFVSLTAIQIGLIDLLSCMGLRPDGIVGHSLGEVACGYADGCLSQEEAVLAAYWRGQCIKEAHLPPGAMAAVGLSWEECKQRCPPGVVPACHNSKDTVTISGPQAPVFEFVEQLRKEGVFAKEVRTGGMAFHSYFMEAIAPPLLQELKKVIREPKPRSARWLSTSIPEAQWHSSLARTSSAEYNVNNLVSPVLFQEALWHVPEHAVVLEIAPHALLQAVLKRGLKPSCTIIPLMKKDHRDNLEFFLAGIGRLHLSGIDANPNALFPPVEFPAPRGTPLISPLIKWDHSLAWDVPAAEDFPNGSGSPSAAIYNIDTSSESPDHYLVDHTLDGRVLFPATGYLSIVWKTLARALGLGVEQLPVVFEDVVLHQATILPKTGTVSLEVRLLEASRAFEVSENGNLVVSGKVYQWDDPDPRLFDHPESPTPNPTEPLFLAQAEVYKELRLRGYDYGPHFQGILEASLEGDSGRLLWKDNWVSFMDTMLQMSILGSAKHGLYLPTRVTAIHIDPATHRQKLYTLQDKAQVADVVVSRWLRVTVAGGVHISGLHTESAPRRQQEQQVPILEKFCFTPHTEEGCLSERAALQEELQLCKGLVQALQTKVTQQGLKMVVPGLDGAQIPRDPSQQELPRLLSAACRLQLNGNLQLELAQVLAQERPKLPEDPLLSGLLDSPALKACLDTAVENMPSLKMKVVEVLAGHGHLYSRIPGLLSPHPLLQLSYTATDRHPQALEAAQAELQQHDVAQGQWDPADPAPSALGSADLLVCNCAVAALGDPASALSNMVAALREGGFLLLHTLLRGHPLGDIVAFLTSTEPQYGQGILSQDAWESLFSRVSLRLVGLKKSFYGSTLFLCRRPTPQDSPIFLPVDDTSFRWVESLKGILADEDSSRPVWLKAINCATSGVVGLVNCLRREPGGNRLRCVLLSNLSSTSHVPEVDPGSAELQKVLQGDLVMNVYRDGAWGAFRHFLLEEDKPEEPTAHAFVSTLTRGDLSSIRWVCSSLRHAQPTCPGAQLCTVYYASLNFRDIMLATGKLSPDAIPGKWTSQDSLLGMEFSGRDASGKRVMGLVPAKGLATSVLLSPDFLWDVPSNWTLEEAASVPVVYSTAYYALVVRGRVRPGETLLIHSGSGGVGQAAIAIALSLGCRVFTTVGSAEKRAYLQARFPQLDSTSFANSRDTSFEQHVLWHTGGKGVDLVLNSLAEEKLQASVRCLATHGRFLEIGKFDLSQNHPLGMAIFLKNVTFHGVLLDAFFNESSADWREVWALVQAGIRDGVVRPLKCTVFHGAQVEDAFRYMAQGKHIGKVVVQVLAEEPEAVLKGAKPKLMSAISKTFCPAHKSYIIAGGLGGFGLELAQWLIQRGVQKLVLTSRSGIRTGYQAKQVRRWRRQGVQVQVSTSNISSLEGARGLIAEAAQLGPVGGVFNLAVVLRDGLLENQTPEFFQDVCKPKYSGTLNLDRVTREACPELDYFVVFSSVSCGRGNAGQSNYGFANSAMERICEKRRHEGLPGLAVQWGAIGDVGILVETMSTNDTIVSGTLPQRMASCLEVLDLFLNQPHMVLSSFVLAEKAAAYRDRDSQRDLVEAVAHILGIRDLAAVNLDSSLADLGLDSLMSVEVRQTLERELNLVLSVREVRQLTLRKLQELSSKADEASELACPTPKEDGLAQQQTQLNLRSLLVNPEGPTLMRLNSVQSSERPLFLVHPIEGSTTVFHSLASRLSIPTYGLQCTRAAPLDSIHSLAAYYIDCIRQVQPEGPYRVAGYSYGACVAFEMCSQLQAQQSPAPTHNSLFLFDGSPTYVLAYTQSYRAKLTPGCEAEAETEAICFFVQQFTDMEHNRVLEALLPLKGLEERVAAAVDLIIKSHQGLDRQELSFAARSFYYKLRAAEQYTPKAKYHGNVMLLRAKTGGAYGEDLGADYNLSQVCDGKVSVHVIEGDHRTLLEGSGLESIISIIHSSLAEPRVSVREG
Description: After 20 minutes incubation at room temperature the plate was measured again (T2).
The decrease in absorbance was calculated as (Absorbance before incubation T1)−(Absorbance following incubation T2).
A plot of Controlmin versus test compound concentration was fitted to a 4-parameter logistic curve using a non-linear least squares regression method.

T1 sequence (P49327 whole entry): as the sequence (P49327 whole entry, the tested form may be a part) above

As for `Cn1ncc2cc(-c3ccc(C4=NC5(CC5)C(=O)N4CC4CN(C(=O)C5CC5)C4)cc3)ccc21` [compound 39, 6-{[1-(Cyclopropylcarbonyl)azetidin-3-yl]methyl}-5-[4-(1-methyl-1H-indazol-5-yl)phenyl]-4,6-diazaspiro[2.4]hept-4-en-7-one], the IC50 was above 10000 nM with A2780 ovarian cells [1], 331 nM in the experiment with A2780 ovarian cells [2], 1050 nM in experiment [3] and 151 nM in experiment [4].

For `O=C(C1CC1)N1CC[C@@H](CN2C(=O)C3(CC3)N=C2c2ccc(-c3nc4ccccc4s3)cc2F)C1` [compound 252, (R)-5-(4-(benzo[d]thiazol-2-yl)-2-fluorophenyl)-6-((1-(cyclopropanecarbonyl)pyrrolidin-3-yl)methyl)-4,6-diazaspiro[2.4]hept-4-en-7-one], the IC50 is above 10000 nM with A2780 ovarian cells [1], around 77.6 nM in the experiment on A2780 ovarian cells [2], 251 nM in experiment [3] and 56.2 nM in experiment [4].

For the compound `Cc1cc(-c2ccc3c(cnn3C)c2)ccc1C1=NC2(CC2)C(=O)N1C[C@@H]1CCN(C(=O)C2CC2)C1` [compound 262, (R)-6-((1-(cyclopropanecarbonyl)pyrrolidin-3-yl)methyl)-5-(2-methyl-4-(1-methyl-1H-indazol-5-yl)phenyl)-4,6-diazaspiro[2.4]hept-4-en-7-one], the IC50 is 6030 nM with A2780 ovarian cells [1], 77.6 nM in the experiment on A2780 ovarian cells [2], 295 nM in experiment [3] and around 117 nM in experiment [4].

As to `O=C(C1CC1)N1CC[C@@H](CN2C(=O)C3(CC3)N=C2c2ccc(-c3ccc4[nH]ncc4c3)cc2)C1` [compound 297, (R)-5-(4-(1H-indazol-5-yl)phenyl)-6-((1-(cyclopropanecarbonyl)pyrrolidin-3-yl)methyl)-4,6-diazaspiro[2.4]hept-4-en-7-one], the IC50 was above 10000 nM in the experiment on A2780 ovarian cells [1], 25.1 nM in the experiment on A2780 ovarian cells [2], 646 nM in experiment [3] and around 30.2 nM in experiment [4].

Take `O=C(C1CC1)N1CC[C@@H](CN2C(=O)C3(CC3)N=C2c2ccc(-c3cccc4[nH]ncc34)cc2)C1` [compound 302]: the IC50 in the experiment on A2780 ovarian cells [1] was above 10000 nM; in the experiment on A2780 ovarian cells [2], 13.2 nM; in experiment [3], 437 nM; in experiment [4], 16.6 nM.

On to `O=C(C1CC1)N1CC[C@@H](CN2C(=O)C3(CC3)N=C2c2ccc(-c3ccc4cccnc4c3)cc2)C1` [compound 309, (R)-6-((1-(cyclopropanecarbonyl)pyrrolidin-3-yl)methyl)-5-(4-(quinolin-7-yl)phenyl)-4,6-diazaspiro[2.4]hept-4-en-7-one], for which the IC50 in the experiment with A2780 ovarian cells [1] was above 10000 nM; in the experiment with A2780 ovarian cells [2] it was 6.17 nM; in experiment [3], 31.6 nM; in experiment [4] it was 7.41 nM.

Consider `O=C(C1CC1)N1CC[C@@H](CN2C(=O)C3(CC3)N=C2c2ccc(-c3c[nH]c4ccccc34)cc2)C1` [compound 314, (R)-5-(4-(1H-indol-3-yl)phenyl)-6-((1-(cyclopropanecarbonyl)pyrrolidin-3-yl)methyl)-4,6-diazaspiro[2.4]hept-4-en-7-one], for which the IC50 in experiment [3] was 309 nM; in experiment [4], 57.5 nM.

For orientation: inhibition means the relative decrease from the control value, in per cent. On to `Cn1cnc2cc(-c3ccc(C4=NC5(CC5)C(=O)N4CC4CN(C(=O)C5CC5)C4)cc3)ccc21` [compound 343, 6-((1-(cyclopropanecarbonyl)azetidin-3-yl)mehtyl)-5-(4-(1-methyl-1H-benzo[d]imidazol-5-yl)phenyl)-4,6-diazaspiro[2.4]hept-4-en-7-one], for which the inhibition at 10 µM in experiment [5] stood at 98%. For the same compound, the IC50 in experiment [3] is 240 nM; in experiment [4] it was 81.3 nM.

Consider `O=C(C1CC1)N1CC(CN2C(=O)C3(CC3)N=C2c2ccc(-c3ccc4ccccc4n3)cc2)C1` [compound 345, 6-((1-(cyclopropanecarbonyl)azetidin-3-yl)methyl)-5-(4-(quinolin-2-yl)phenyl)-4,6-diazaspiro[2.4]hept-4-en-7-one], for which the inhibition at 10 µM in experiment [5] came out at 99%. Further, the IC50 in experiment [3] is 1200 nM; in experiment [4], 562 nM.

Regarding `O=C(C1CC1)N1CC[C@H](CN2C(=O)C3(CC3)N=C2c2ccc(-c3ccc4occc4c3)cc2)C1` [compound 409, 5-[4-(1-Benzofuran-5-yl)phenyl]-6-{[(3S)-1-(cyclopropylcarbonyl)pyrrolidin-3-yl]methyl}-4,6-diazaspiro[2.4]hept-4-en-7-one], the IC50 in the experiment with A2780 ovarian cells [1] was above 10000 nM; with A2780 ovarian cells [2] it was 2090 nM; in experiment [3], 2190 nM; in experiment [4], 1170 nM.

On to `Cn1ncc2cc(-c3ccc(C4=NC5(CC5)C(=O)N4C[C@H]4CCN(C(=O)C5CC5)C4)cc3)ccc21` [compound 410, 6-{[(3S)-1-(Cyclopropylcarbonyl)pyrrolidin-3-yl]methyl}-5-[4-(1-methyl-1H-indazol-5-yl)phenyl]-4,6-diazaspiro[2.4]hept-4-en-7-one], for which the IC50 in the experiment on A2780 ovarian cells [1] was above 10000 nM; with A2780 ovarian cells [2], 537 nM; in experiment [3], 977 nM; in experiment [4], 447 nM.

Consider `Cc1cc(C2=NC3(CC3)C(=O)N2C[C@@H]2CCN(C(=O)C3CC3)C2)ccc1-c1ccc2c(cnn2C)c1` [compound 450, 6-{[(3R)-1-(Cyclopropylcarbonyl)pyrrolidin-3-yl]methyl}-5-[3-methyl-4-(1-methyl-1H-indazol-5-yl)phenyl]-4,6-diazaspiro[2.4]hept-4-en-7-one], for which the IC50 in the experiment on A2780 ovarian cells [1] is above 10000 nM; in the experiment with A2780 ovarian cells [2] it was around 617 nM; in experiment [3], 2340 nM; in experiment [4], 794 nM.

With `O=C(C1CC1)N1CC[C@@H](CN2C(=O)C3(CC3)N=C2c2ccc(-c3nc4ccccc4[nH]3)cc2)C1` [compound 497, 5-[4-(1H-Benzimidazol-2-yl)phenyl]-6-{[(3R)-1-(cyclopropylcarbonyl)pyrrolidin-3-yl]methyl}-4,6-diazaspiro[2.4]hept-4-en-7-one], the results for the IC50 in experiment [3] and in experiment [4] were 5370 nM and 479 nM, respectively.

In the case of `Cc1cc(-c2ccc3c(c2)c(Cl)nn3C)ccc1C1=NC2(CC2)C(=O)N1CC1CN(C(=O)C2CC2)C1` [compound 591, 5-[4-(3-Chloro-1-methyl-1H-indazol-5-yl)-2-methylphenyl]-6-{[1-(cyclopropylcarbonyl)azetidin-3-yl]methyl}-4,6-diazaspiro[2.4]hept-4-en-7-one], the inhibition at 10 µM in experiment [5] is 93%. For the same compound, the IC50 is 195 nM in experiment [5]; above 10000 nM in the experiment on A2780 ovarian cells [1]; around 347 nM with A2780 ovarian cells [2]; 372 nM in experiment [4]; 1050 nM in experiment [6].

On to `Cc1cc(-c2ccc3cc(C)c(Cl)nc3c2)ccc1C1=NC2(CC2)C(=O)N1CC1CN(C(=O)C2(C)CC2)C1` [compound 596], for which the inhibition at 10 µM in experiment [5] was 102%. The IC50 was 186 nM in experiment [5]; 6310 nM with A2780 ovarian cells [1]; 457 nM with A2780 ovarian cells [2]; around 759 nM in experiment [4]; 589 nM in experiment [6].

As for `COC(=O)N1CC2(C1)N=C(c1ccc(-c3ccc4c(cnn4C)c3)cc1)N(C[C@@H]1CCN(C(=O)C3CC3)C1)C2=O` [compound 737, Methyl 7-{[(3R)-1-(cyclopropylcarbonyl)pyrrolidin-3-yl]methyl}-6-[4-(1-methyl-1H-indazol-5-yl)phenyl]-8-oxo-2,5,7-triazaspiro[3.4]oct-5-ene-2-carboxylate], the figures for the IC50 in experiment [3] and in experiment [4] were around 3720 nM and 708 nM, respectively.

Turning to `COCCN1CCC2(CC1)N=C(c1ccc(-c3ccc4occc4c3)cc1)N(C[C@@H]1CCN(C(=O)C3CC3)C1)C2=O` [compound 749, 2-[4-(1-Benzofurann-5-yl)phenyl]-3-{[(3R)-1-(cyclopropylcarbonyl)pyrrolidin-3-yl]methyl}-8-(2-methoxyethyl)-1,3,8-triazaspiro[4.5]dec-1-en-4-one], the inhibition at 10 µM in experiment [5] came out at 97%. The IC50 was 138 nM in experiment [5]; above 10000 nM in the experiment with A2780 ovarian cells [1]; 1550 nM in the experiment with A2780 ovarian cells [2]; 759 nM in experiment [4]; 603 nM in experiment [6].
